Experimental data reported in US8796256B2 (Janssen Pharmaceutica NV, priority 2010, dated 2014).

Molecular target: T1, ERR1 (also known as ERR-α or ERR-1) (Homo sapiens, UniProt P11474)
T1 sequence (P11474 193-421 limits assumed): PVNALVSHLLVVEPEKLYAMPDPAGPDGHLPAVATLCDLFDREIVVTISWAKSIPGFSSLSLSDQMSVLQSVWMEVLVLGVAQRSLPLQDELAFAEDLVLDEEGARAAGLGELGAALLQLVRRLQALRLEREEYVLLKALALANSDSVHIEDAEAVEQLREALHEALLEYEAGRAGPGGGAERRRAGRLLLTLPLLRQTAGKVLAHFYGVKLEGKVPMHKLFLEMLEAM
Assay: TR-FRET assay (disruption of co-activator peptide binding to ERR1 LBD)
Assay type: biochemical
Details: 6 nM 6His-ERR1LBD, 6 nM GST-SRC-2 peptide; average of 3 independent experiments
Method in brief: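 His-tagged ERR1 ligand-binding domain and GST-labelled SRC-2 peptide, each 6 nM, equilibrated at 25° C for 4-18 h in Tris pH 8/Hepes/KCl/DTT/delipidated BSA buffer. Compound-induced loss of co-activator binding read as Eu cryptate→XL665 energy transfer; values from hyperbolic curve fits averaged over 3 independent runs.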

EC50	SMILES
0.014 µM	O=C1S/C(=C\c2ccc3c(cnn3Cc3ccc(Cl)cc3C(F)(F)F)c2)C(=O)N1Cc1cscn1 [Compound 93]
0.033 µM	O=C(O)C(Cc1ccccn1)N1C(=O)S/C(=C\c2ccc3c(cnn3Cc3ccc(Cl)cc3C(F)(F)F)c2)C1=O (centres unmarked) [Compound 216, 2-[(5Z)-5-({1-[4-Chloro-2-(trifluoromethyl)benzyl]-1H-indazol-5-yl}methylidene)-2,4-dioxo-1,3-thiazolidin-3-yl]-3-pyridin-2-ylpropanoic acid]
0.122 µM	CN(CCN1C(=O)S/C(=C\c2ccc3c(cnn3Cc3ccc(Cl)cc3C(F)(F)F)c2)C1=O)C(=O)C(F)(F)F [Compound 394, N-{2-[(5Z)-5-({1-[4-Chloro-2-(trifluoromethyl)benzyl]-1H-indazol-5-yl}methylidene)-2,4-dioxo-1,3-thiazolidin-3-yl]ethyl}-2,2,2-trifluoro-N-methylacetamide]
0.022 µM	O=C1S/C(=C\c2ccc3c(cnn3Cc3ccc(Cl)cc3C(F)(F)F)c2)C(=O)N1[C@@H]1CNCC[C@H]1O (relative stereo) [Compound 279, (5Z)-5-({1-[4-Chloro-2-(trifluoromethyl)-benzyl]-1H-indazol-5-yl}methylidene)-3-[trans-4-hydroxypiperidin-3-yl]-1,3-thiazolidine-2,4-dione]
0.092 µM	O=C1S/C(=C\c2ccc3c(cnn3Cc3ccc(Cl)cc3C(F)(F)F)c2)C(=O)N1C1(C(=O)O)CC1 [Compound 89, 1-[(5Z)-5-({1-[4-Chloro-2-(trifluoromethyl)benzyl]-1H-indazol-5-yl}methylidene)-2,4-dioxo-1,3-thiazolidin-3-yl]cyclopropanecarboxylic acid]
0.136 µM	O=C1S/C(=C\c2ccc3c(cnn3Cc3ccc(Cl)cc3C(F)(F)F)c2)C(=O)N1Cc1c[nH]nn1 [Compound 85, (5Z)-5-({1-[4-Chloro-2-(trifluoromethyl)benzyl]-1H-indazol-5-yl}methylidene)-3-(1H-1,2,3-triazol-4-ylmethyl)-1,3-thiazolidine-2,4-dione]
0.264 µM	N[C@@H](CN1C(=O)S/C(=C\c2ccc3c(cnn3Cc3ccc(Cl)cc3C(F)(F)F)c2)C1=O)C1CCCCC1 [Compound 107, (5Z)-3-[(2R)-2-Amino-2-cyclohexylethyl]-5-({1-[4-chloro-2-(trifluoromethyl)benzyl]-1H-indazol-5-yl}methylidene)-1,3-thiazolidine-2,4-dione]
0.035 µM	CC1(C)CC(N2C(=O)S/C(=C\c3ccc4c(cnn4Cc4ccc(Cl)cc4C(F)(F)F)c3)C2=O)CC(C)(C)N1 [Compound 175, (5Z)-5-({1-[4-Chloro-2-(trifluoromethyl)benzyl]-1H-indazol-5-yl}methylidene)-3-(2,2,6,6-tetramethylpiperidin-4-yl)-1,3-thiazolidine-2,4-dione]
0.046 µM	Nc1nc(CN2C(=O)S/C(=C\c3ccc4c(cnn4Cc4ccc(Cl)cc4C(F)(F)F)c3)C2=O)c[nH]1 [Compound 231, (5Z)-3-[(2-Amino-1H-imidazol-4-yl)methyl]-5-({1-[4-chloro-2-(trifluoromethyl)benzyl]-1H-indazol-5-yl}methylidene)-1,3-thiazolidine-2,4-dione]
0.062 µM	Nc1nc(CN2C(=O)S/C(=C\c3ccc4c(cnn4Cc4ccc(Cl)cc4C(F)(F)F)c3)C2=O)cs1 [Compound 400, (5Z)-3-[(2-Amino-1,3-thiazol-4-yl)methyl]-5-({1-[4-chloro-2-(trifluoromethyl)benzyl]-1H-indazol-5-yl}methylidene)-1,3-thiazolidine-2,4-dione]
0.107 µM	COC(=O)C1(N2C(=O)S/C(=C\c3ccc4c(cnn4Cc4ccc(Cl)cc4C(F)(F)F)c3)C2=O)CCCC1 [Compound 232, Methyl 1-[(5Z)-5-({1-[4-chloro-2-(trifluoromethyl)benzyl]-1H-indazol-5-yl}methylidene)-2,4-dioxo-1,3-thiazolidin-3-yl]cyclopentanecarboxylate]
0.055 µM	O=C1S/C(=C\c2ccc3c(cnn3Cc3ccc(Cl)cc3C(F)(F)F)c2)C(=O)N1[C@H]1CCNC1 [Compound 114, (5Z)-5-({1-[4-Chloro-2-(trifluoromethyl)benzyl]-1H-indazol-5-yl}methylidene)-3-[(3S)-pyrrolidin-3-yl]-1,3-thiazolidine-2,4-dione]
0.028 µM	O=C1S/C(=C\c2ccc3c(cnn3Cc3ccc(Cl)cc3C(F)(F)F)c2)C(=O)N1[C@@H]1CCNC[C@H]1F [Compound 381, (5Z)-5-({1-[4-Chloro-2-(trifluoromethyl)benzyl]-1H-indazol-5-yl}methylidene)-3-[(3R,4R)-3-fluoropiperidin-4-yl]-1,3-thiazolidine-2,4-dione]

More lines, now with the values behind:

SMILES	EC50
CS(=O)(=O)NN1C(=O)S/C(=C\c2ccc3c(c2)c(F)nn3Cc2ccc(Cl)cc2C(F)(F)F)C1=O [Compound 368, N-[(5Z)-5-({1-[4-Chloro-2-(trifluoromethyl)benzyl]-3-fluoro-1H-indazol-5-yl}methylidene)-2,4-dioxo-1,3-thiazolidin-3-yl]methanesulfonamide]	0.003 µM
COC1CCN(S(=O)(=O)NC(=O)CN2C(=O)S/C(=C\c3ccc4c(cnn4Cc4ccc(Cl)cc4C(F)(F)F)c3)C2=O)CC1 [Compound 58, 2-[(5Z)-5-({1-[4-chloro-2-(trifluoromethyl)benzyl]-1H-indazol-5-yl}methylidene)-2,4-dioxo-1,3-thiazolidin-3-yl]-N-[(4-methoxypiperidin-1-yl)sulfonyl]acetamide]	0.044 µM
O=C1S/C(=C\c2ccc3c(cnn3Cc3ccc(Cl)cc3C(F)(F)F)c2)C(=O)N1C[C@@H]1CN2CCOC[C@H]2CO1 [Compound 205, (5Z)-5-({1-[4-Chloro-2-(trifluoromethyl)benzyl]-1H-indazol-5-yl}methylidene)-3-[(3S,9aS)-hexahydro-1H-[1,4]oxazino[3,4-c] [1,4]oxazin-3-ylmethyl]-1,3-thiazolidine-2,4-dione]	0.022 µM
COC(=O)CN1C(=O)S/C(=C\c2ccc3c(ccn3Cc3ccc(C(F)(F)F)cc3C(F)(F)F)c2)C1=O [Compound 238, Methyl {(5Z)-5-[(1-{[2,4-bis(trifluoromethyl)phenyl]methyl}-1H-indol-5-yl)methylidene]-2,4-dioxo-1,3-thiazolidin-3-yl}acetate]	1.8 µM
N[C@H](CN1C(=O)S/C(=C\c2ccc3c(cnn3Cc3ccc(Cl)cc3C(F)(F)F)c2)C1=O)c1ccccc1 [Compound 161, (5Z)-3-[(2S)-2-Amino-2-phenylethyl]-5-({1-[4-chloro-2-(trifluoromethyl)benzyl]-1H-indazol-5-yl}methylidene)-1,3-thiazolidine-2,4-dione]	0.073 µM
CC(C)N(CCO)CCN1C(=O)S/C(=C\c2ccc3c(cnn3Cc3ccc(Cl)cc3C(F)(F)F)c2)C1=O [Compound 45, (5Z)-5-({1-[4-Chloro-2-(trifluoromethyl)benzyl]-1H-indazol-5-yl}methylidene)-3-{2-[(2-hydroxyethyl)(1-methylethyl)amino]ethyl}-1,3-thiazolidine-2,4-dione]	0.047 µM
N#CCN1CC[C@@H](N2C(=O)S/C(=C\c3ccc4c(cnn4Cc4ccc(Cl)cc4C(F)(F)F)c3)C2=O)[C@H](F)C1 (relative stereo) [Compound 338]	0.024 µM
O=C(NN1C(=O)S/C(=C\c2ccc3c(cnn3Cc3ccc(C(F)(F)F)cc3C(F)(F)F)c2)C1=O)C1CC1 [Compound 372, N-[(5Z)-5-({1-[2,4-Bis(trifluoromethyl)benzyl]-1H-indazol-5-yl}methylidene)-2,4-dioxo-1,3-thiazolidin-3-yl]cyclopropanecarboxamide]	0.011 µM
CC(C)(C)OC(=O)COCCN1C(=O)S/C(=C\c2ccc3c(cnn3Cc3ccc(Cl)cc3C(F)(F)F)c2)C1=O [Compound 236, tert-Butyl {2-[(5Z)-5-({1-[4-chloro-2-(trifluoromethyl)benzyl]-1H-indazol-5-yl}methylidene)-2,4-dioxo-1,3-thiazolidin-3-yl]ethoxy}acetate]	0.111 µM
O=C(O)C1CCC(N2C(=O)S/C(=C\c3ccc4c(c3)nnn4Cc3ccc(Cl)cc3C(F)(F)F)C2=O)CC1 (centres unmarked) [Compound 266, 4-[(5Z)-5-({1-[4-Chloro-2-(trifluoromethyl)benzyl]-1H-benzotriazol-5-yl}methylidene)-2,4-dioxo-1,3-thiazolidin-3-yl]cyclohexanecarboxylic acid]	0.029 µM
O=C(NC1(CN2C(=O)S/C(=C\c3ccc4c(cnn4Cc4ccc(C(F)(F)F)cc4C(F)(F)F)c3)C2=O)CCOCC1)C1CC1 [Compound 311, N-(4-{[(5Z)-5-({1-[2,4-Bis(trifluoromethyl)benzyl]-1H-indazol-5-yl}methylidene)-2,4-dioxo-1,3-thiazolidin-3-yl]methyl}tetrahydro-2H-pyran-4-yl) cyclopropanecarboxamide]	0.133 µM
CN(C)CCN1C(=O)S/C(=C\c2ccc3c(ccn3Cc3ccc(F)cc3C(F)(F)F)c2)C1=O [Compound 250, (5Z)-3-[2-(Dimethylamino)ethyl]-5-[(1-{[4-fluoro-2-(trifluoromethyl)phenyl]methyl}-1H-indol-5-yl)methylidene]-1,3-thiazolidine-2,4-dione]	0.2 µM
O=C1S/C(=C\c2ccc3c(cnn3Cc3ccc(Cl)cc3C(F)(F)F)c2)C(=O)N1Cc1nccn1S(=O)(=O)C(F)(F)F [Compound 411, (5Z)-5-({1-[4-Chloro-2-(trifluoromethyl)benzyl]-1H-indazol-5-yl}methylidene)-3-({1-[(trifluoromethyl)sulfonyl]-1H-imidazol-2-yl}methyl)-1,3-thiazolidine-2,4-dione]	0.029 µM
